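Grown in 96-well plates, cells were treated for 48 hours with each compound at five concentrations. Insufficient inhibition: endpoint recorded as highest concentration tested. Abbreviation: GI50, concentration required for 50% inhibition of growth. TGI denotes the concentration required for complete inhibition of growth.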
Columns and labels:
Assay in all cases: NCI tumour cell line growth inhibition, 48 h
[1] = tested on: HOP-92 NSCLC
[2] = tested on: A549 NSCLC
[3] = tested on: SF-295 CNS
[4] = tested on: OVCAR-3 ovarian
[5] = tested on: OVCAR-4 ovarian
[6] = tested on: K-562 leukemia
[7] = tested on: SN12C renal
[8] = tested on: CCRF-CEM leukemia
[9] = tested on: SK-MEL-5 melanoma
[10] = tested on: OVCAR-5 ovarian

Row | SMILES | GI50 [1] [µM] | TGI [1] [µM] | GI50 [2] [µM] | TGI [2] [µM] | GI50 [3] [µM] | TGI [3] [µM] | GI50 [4] [µM] | TGI [4] [µM] | GI50 [5] [µM] | TGI [5] [µM] | GI50 [6] [µM] | TGI [6] [µM] | GI50 [7] [µM] | TGI [7] [µM] | GI50 [8] [µM] | TGI [8] [µM] | GI50 [9] [µM] | TGI [9] [µM] | GI50 [10] [µM] | TGI [10] [µM]
1 | O=C(Nc1ncc(Cc2ccccc2Cl)s1)c1ccc2c(c1)OCCO2 | 4.08 | > 81.8 | 0.466 | > 100 | 0.346 | 5.04 | 0.285 | 1.07 | 0.693 | > 68.2 | 0.183 | > 100 | 0.614 | > 94 | 0.36 | > 100 | 0.334 | 1.81 | 0.747 | > 100
2 | O=C1c2ccccc2-c2c1c1ccccc1c(=O)n2CCCN1CCOCC1 | 4.81 | 13 | 26.2 | > 100 | 6.72 | 20.6 | 25 | > 100 | > 100 | > 100 | > 100 | > 100 | 21.3 | > 100 | > 38.4 | > 100 | 12.3 | > 95 | 35.9 | > 100
3 | Nc1c(-c2nc3ccccc3[nH]2)sc(=S)n1-c1ccccc1 |  | > 100 |  | > 100 |  | > 100 |  | > 100 |  | > 100 |  | > 100 |  | > 100 |  | 81.2 |  | > 100 |  | > 100
4 | O=C(NC(=S)Nc1ccc(Cl)cc1)c1ccccc1 | 8.63 | 68.5 | > 100 | > 100 | > 65.1 | > 100 | > 70.6 | > 100 | > 46.5 | > 100 | > 100 | > 100 | > 100 | > 100 | > 100 | > 100 | > 100 | > 100 | > 100 | > 100
5 | CN(C)c1ccc2c3c(c(=O)oc2c1)CCC3 |  | > 100 |  | > 100 |  | > 100 |  | > 100 |  | > 100 |  | > 100 |  | > 100 |  | > 100 |  | > 100 |  | > 100
6 | C=C1C(=O)O[C@H]2[C@H]1CC/C(Cn1cc(-c3ccccc3)nn1)=C\CC[C@@]1(C)O[C@@H]21 | 1.42 | 3.6 | 5.88 | 13.8 | 7.88 | 15.4 | 1.4 | 4.38 | 3.22 | 12.1 | 1.76 | 8.49 | 4.5 | 11.5 | 0.992 | 4.95 | 7.32 | 13.9 | 5.7 | 13.3
7 | O=C1OC2(c3ccccc3Oc3ccccc32)c2ccccc21 |  | > 100 |  | > 100 |  | > 100 |  | > 100 |  | > 100 |  | > 100 |  | > 100 |  | > 100 |  | > 100 |  | > 100
8 | O=C1OC(=O)C2C1C1(c3ccccc3)C(c3ccccc3)=C(c3ccccc3)C2(c2ccccc2)S1=O (stereo not given) | > 100 | > 100 | > 100 | > 100 | > 100 | > 100 | > 100 | > 100 | > 100 | > 100 | 78.2 | > 100 | > 100 | > 100 | > 100 | > 100 | > 100 | > 100 | > 100 | > 100
